Measured values from patent US20250144067A1, “PERSONALIZED STARVATION THERAPY FOR CANCER” (Faeth Therapeutics, Inc., priority 2021, published 2025).
Counter-ions that a name gives are not always drawn.

The compounds below were run on NCI-H292 lung cancer cells (assay: FDA drug screening, complete media vs cholesterol-free media without statin (TABLE 1)). Conditions: Complete minus Cholesterol-free; greater than 0 enhanced anti-cancer activity, about 0 neutral, below 0 antagonist.
Format: cell-based, human

Row | Compound | Difference
1 | CCS(=O)(=O)CCn1c([N+](=O)[O-])cnc1C [Tinidazole] | −0.13
2 | CCOC(=O)c1c(N)sc2c1CCN(Cc1ccccc1)C2 [Tinoridine hydrochloride] | −0.11

Same assay, conditions: Complete minus Cholesterol-free; greater than 0 enhanced anti-cancer activity, about 0 neutral, below 0 antagonists

Row | Compound | Difference
3 | CCCSc1nc(N[C@@H]2C[C@H]2c2ccc(F)c(F)c2)c2nnn([C@@H]3C[C@H](OCCO)[C@@H](O)[C@H]3O)c2n1 [Ticagrelor] | −0.72
4 | Clc1ccccc1CN1CCc2sccc2C1 [Ticlopidine (hydrochloride)] | −0.88
5 | O=C(O)Cc1cc(I)c(Oc2ccc(O)c(I)c2)c(I)c1 [Tiratricol] | −0.55
6 | CCCCS(=O)(=O)N[C@@H](Cc1ccc(OCCCCC2CCNCC2)cc1)C(=O)O [Tirofiban (hydrochloride monohydrate)] | −0.96
7 | Cc1ccc(S(=O)(=O)NC(=O)NN2CCCCCC2)cc1 [Tolazamide] | −0.50

Same assay, conditions: NCI-H292 cells in cholesterol-free media without statin

Row | Compound | Cholesterol-free
8 | CCCSc1nc(N[C@@H]2C[C@H]2c2ccc(F)c(F)c2)c2nnn([C@@H]3C[C@H](OCCO)[C@@H](O)[C@H]3O)c2n1 [Ticagrelor] | 1.589
9 | Clc1ccccc1CN1CCc2sccc2C1 [Ticlopidine (hydrochloride)] | 1.64
10 | O=C(O)Cc1cc(I)c(Oc2ccc(O)c(I)c2)c(I)c1 [Tiratricol] | 1.869
11 | CCCCS(=O)(=O)N[C@@H](Cc1ccc(OCCCCC2CCNCC2)cc1)C(=O)O [Tirofiban (hydrochloride monohydrate)] | 1.842
12 | Cc1ccc(S(=O)(=O)NC(=O)NN2CCCCCC2)cc1 [Tolazamide] | 1.412

Same assay, conditions: NCI-H292 cells in complete media

Row | Compound | Complete
13 | CCCSc1nc(N[C@@H]2C[C@H]2c2ccc(F)c(F)c2)c2nnn([C@@H]3C[C@H](OCCO)[C@@H](O)[C@H]3O)c2n1 [Ticagrelor] | 0.8706
14 | Clc1ccccc1CN1CCc2sccc2C1 [Ticlopidine (hydrochloride)] | 0.7613
15 | O=C(O)Cc1cc(I)c(Oc2ccc(O)c(I)c2)c(I)c1 [Tiratricol] | 1.318
16 | CCCCS(=O)(=O)N[C@@H](Cc1ccc(OCCCCC2CCNCC2)cc1)C(=O)O [Tirofiban (hydrochloride monohydrate)] | 0.8788
17 | Cc1ccc(S(=O)(=O)NC(=O)NN2CCCCCC2)cc1 [Tolazamide] | 0.9106

Same assay, conditions: NCI-H292 cells, FDA drug library screen, cholesterol-free media without statin

Row | Compound | Cholesterol-free
18 | CCS(=O)(=O)CCn1c([N+](=O)[O-])cnc1C [Tinidazole] | 1.121
19 | CCOC(=O)c1c(N)sc2c1CCN(Cc1ccccc1)C2 [Tinoridine hydrochloride] | 1.153

Same assay, conditions: NCI-H292 cells, FDA drug library screen, complete media

Row | Compound | Complete
20 | CCS(=O)(=O)CCn1c([N+](=O)[O-])cnc1C [Tinidazole] | 0.9876
21 | CCOC(=O)c1c(N)sc2c1CCN(Cc1ccccc1)C2 [Tinoridine hydrochloride] | 1.039

Same assay, conditions: NCI-H292 cells, cholesterol-free media without statin

Row | Compound | Cholesterol-free
22 | Cc1ccc(C(C)C)c(O)c1 [Thymol] | 1.354
23 | COc1cc2nccc(Oc3ccc(NC(=O)Nc4cc(C)on4)c(Cl)c3)c2cc1OC [Tivozanib] | 1.298
24 | Cc1cccc(C)c1NC(=O)C(C)N (centres unmarked) [Tocainide (hydrochloride)] | 1.376
25 | CCc1ccc(Cc2ccc3c(c2)[C@]2(OC3)O[C@H](CO)[C@@H](O)[C@H](O)[C@H]2O)cc1 [Tofogliflozin (hydrate)] | 1.411

Same assay, conditions: NCI-H292 cells, cholesterol-free media without statin, FDA drug library screen

Row | Compound | Cholesterol-free
26 | CC1(C)S[C@@H]2[C@H](NC(=O)[C@H](C(=O)[O-])c3ccsc3)C(=O)N2[C@H]1C(=O)[O-].[Na+].[Na+] [Ticarcillin (disodium)] | 0.7001
27 | NC[C@H]1O[C@H](O[C@H]2[C@H](O)[C@@H](O[C@H]3O[C@H](CO)[C@@H](O)[C@H](N)[C@H]3O)[C@H](N)C[C@@H]2N)[C@H](N)C[C@@H]1O [Tobramycin] | 1.416
28 | Cc1[nH]c(/C=C2\C(=O)Nc3ccc(F)cc32)c(C)c1C(=O)NCCN1CCCC1 [Toceranib] | 0.7492

Same assay, conditions: NCI-H292 cells, complete media

Row | Compound | Complete
29 | Cc1ccc(C(C)C)c(O)c1 [Thymol] | 1.041
30 | COc1cc2nccc(Oc3ccc(NC(=O)Nc4cc(C)on4)c(Cl)c3)c2cc1OC [Tivozanib] | 0.868
31 | Cc1cccc(C)c1NC(=O)C(C)N (centres unmarked) [Tocainide (hydrochloride)] | 0.9544
32 | CCc1ccc(Cc2ccc3c(c2)[C@]2(OC3)O[C@H](CO)[C@@H](O)[C@H](O)[C@H]2O)cc1 [Tofogliflozin (hydrate)] | 1.03

Same assay, conditions: NCI-H292 cells, complete media, FDA drug library screen

Row | Compound | Complete
33 | CC1(C)S[C@@H]2[C@H](NC(=O)[C@H](C(=O)[O-])c3ccsc3)C(=O)N2[C@H]1C(=O)[O-].[Na+].[Na+] [Ticarcillin (disodium)] | 1.43
34 | NC[C@H]1O[C@H](O[C@H]2[C@H](O)[C@@H](O[C@H]3O[C@H](CO)[C@@H](O)[C@H](N)[C@H]3O)[C@H](N)C[C@@H]2N)[C@H](N)C[C@@H]1O [Tobramycin] | 1.802
35 | Cc1[nH]c(/C=C2\C(=O)Nc3ccc(F)cc32)c(C)c1C(=O)NCCN1CCCC1 [Toceranib] | 1.361

Same assay, conditions: complete vs cholesterol-free media; >0 enhanced anti-cancer activity, about 0 neutral, <0 antagonist

Row | Compound | Difference
36 | CC1(C)S[C@@H]2[C@H](NC(=O)[C@H](C(=O)[O-])c3ccsc3)C(=O)N2[C@H]1C(=O)[O-].[Na+].[Na+] [Ticarcillin (disodium)] | 0.73
37 | NC[C@H]1O[C@H](O[C@H]2[C@H](O)[C@@H](O[C@H]3O[C@H](CO)[C@@H](O)[C@H](N)[C@H]3O)[C@H](N)C[C@@H]2N)[C@H](N)C[C@@H]1O [Tobramycin] | 0.39
38 | Cc1[nH]c(/C=C2\C(=O)Nc3ccc(F)cc32)c(C)c1C(=O)NCCN1CCCC1 [Toceranib] | 0.61

Same assay, conditions: complete vs cholesterol-free media; greater than 0 enhanced anti-cancer activity, about 0 neutral, below 0 antagonists

Row | Compound | Difference
39 | Cc1ccc(C(C)C)c(O)c1 [Thymol] | −0.31
40 | COc1cc2nccc(Oc3ccc(NC(=O)Nc4cc(C)on4)c(Cl)c3)c2cc1OC [Tivozanib] | −0.43
41 | Cc1cccc(C)c1NC(=O)C(C)N (centres unmarked) [Tocainide (hydrochloride)] | −0.42
42 | CCc1ccc(Cc2ccc3c(c2)[C@]2(OC3)O[C@H](CO)[C@@H](O)[C@H](O)[C@H]2O)cc1 [Tofogliflozin (hydrate)] | −0.38

These compounds were tested on NCI-H292 lung cancer cells (assay: FDA drug screening, complete media vs cholesterol-free media with simvastatin (TABLE 2)). Conditions: NCI-H292 cells, FDA drug library screen, cholesterol-free media with simvastatin 0.04 μM.
Format: cell-based, human

Row | Compound | Cholesterol-free media + simvastatin (0.04 μM)
43 | CCCSc1nc(N[C@@H]2C[C@H]2c2ccc(F)c(F)c2)c2nnn([C@@H]3C[C@H](OCCO)[C@@H](O)[C@H]3O)c2n1 [Ticagrelor] | 0.854
44 | CC1(C)S[C@@H]2[C@H](NC(=O)[C@H](C(=O)[O-])c3ccsc3)C(=O)N2[C@H]1C(=O)[O-].[Na+].[Na+] [Ticarcillin (disodium)] | 1.294
45 | O=C(O)Cc1cc(I)c(Oc2ccc(O)c(I)c2)c(I)c1 [Tiratricol] | 0.7173
46 | CCCCS(=O)(=O)N[C@@H](Cc1ccc(OCCCCC2CCNCC2)cc1)C(=O)O [Tirofiban (hydrochloride monohydrate)] | 1.824
47 | COc1cc2nccc(Oc3ccc(NC(=O)Nc4cc(C)on4)c(Cl)c3)c2cc1OC [Tivozanib] | 0.868

Same assay, conditions: NCI-H292 cells, FDA drug library screen, complete media

Row | Compound | Complete Media
48 | CCCSc1nc(N[C@@H]2C[C@H]2c2ccc(F)c(F)c2)c2nnn([C@@H]3C[C@H](OCCO)[C@@H](O)[C@H]3O)c2n1 [Ticagrelor] | 1.275
49 | CC1(C)S[C@@H]2[C@H](NC(=O)[C@H](C(=O)[O-])c3ccsc3)C(=O)N2[C@H]1C(=O)[O-].[Na+].[Na+] [Ticarcillin (disodium)] | 1.207
50 | CCCCS(=O)(=O)N[C@@H](Cc1ccc(OCCCCC2CCNCC2)cc1)C(=O)O [Tirofiban (hydrochloride monohydrate)] | 1.693
51 | COc1cc2nccc(Oc3ccc(NC(=O)Nc4cc(C)on4)c(Cl)c3)c2cc1OC [Tivozanib] | 1.06

Same assay, conditions: NCI-H292 cells, cholesterol-free media with simvastatin 0.04 μM; cell growth value in FDA drug screen

Row | Compound | Cholesterol-free media + simvastatin (0.04 μM)
52 | Clc1ccccc1CN1CCc2sccc2C1 [Ticlopidine (hydrochloride)] | 1.416
53 | CCOC(=O)c1c(N)sc2c1CCN(Cc1ccccc1)C2 [Tinoridine hydrochloride] | 1.034
54 | NC[C@H]1O[C@H](O[C@H]2[C@H](O)[C@@H](O[C@H]3O[C@H](CO)[C@@H](O)[C@H](N)[C@H]3O)[C@H](N)C[C@@H]2N)[C@H](N)C[C@@H]1O [Tobramycin] | 0.8625
55 | Cc1[nH]c(/C=C2\C(=O)Nc3ccc(F)cc32)c(C)c1C(=O)NCCN1CCCC1 [Toceranib] | 0.9375
56 | CCc1ccc(Cc2ccc3c(c2)[C@]2(OC3)O[C@H](CO)[C@@H](O)[C@H](O)[C@H]2O)cc1 [Tofogliflozin (hydrate)] | 0.9605
57 | Cc1ccc(S(=O)(=O)NC(=O)NN2CCCCCC2)cc1 [Tolazamide] | 1.047

Same assay, conditions: NCI-H292 cells, complete media; cell growth value in FDA drug screen

Row | Compound | Complete Media
58 | Clc1ccccc1CN1CCc2sccc2C1 [Ticlopidine (hydrochloride)] | 1.478
59 | CCOC(=O)c1c(N)sc2c1CCN(Cc1ccccc1)C2 [Tinoridine hydrochloride] | 1.059
60 | NC[C@H]1O[C@H](O[C@H]2[C@H](O)[C@@H](O[C@H]3O[C@H](CO)[C@@H](O)[C@H](N)[C@H]3O)[C@H](N)C[C@@H]2N)[C@H](N)C[C@@H]1O [Tobramycin] | 0.9069
61 | Cc1[nH]c(/C=C2\C(=O)Nc3ccc(F)cc32)c(C)c1C(=O)NCCN1CCCC1 [Toceranib] | 1.022
62 | CCc1ccc(Cc2ccc3c(c2)[C@]2(OC3)O[C@H](CO)[C@@H](O)[C@H](O)[C@H]2O)cc1 [Tofogliflozin (hydrate)] | 1.04
63 | Cc1ccc(S(=O)(=O)NC(=O)NN2CCCCCC2)cc1 [Tolazamide] | 1.177

Same assay, conditions: NCI-H292 cells, drug in cholesterol-free media with simvastatin 0.04 μM

Row | Compound | Cholesterol-free media + simvastatin (0.04 μM)
64 | Cc1ccc(C(C)C)c(O)c1 [Thymol] | 1.184
65 | CCS(=O)(=O)CCn1c([N+](=O)[O-])cnc1C [Tinidazole] | 0.8398
66 | Cc1cccc(C)c1NC(=O)C(C)N (centres unmarked) [Tocainide (hydrochloride)] | 1.258

Same assay, conditions: NCI-H292 cells, drug in complete media

Row | Compound | Complete Media
67 | Cc1ccc(C(C)C)c(O)c1 [Thymol] | 0.956
68 | CCS(=O)(=O)CCn1c([N+](=O)[O-])cnc1C [Tinidazole] | 0.6611
69 | Cc1cccc(C)c1NC(=O)C(C)N (centres unmarked) [Tocainide (hydrochloride)] | 1.006

Same assay, conditions: complete media minus cholesterol-free media + simvastatin; >0 enhanced anti-cancer activity, about 0 neutral, <0 antagonist

Row | Compound | Difference
70 | CCCSc1nc(N[C@@H]2C[C@H]2c2ccc(F)c(F)c2)c2nnn([C@@H]3C[C@H](OCCO)[C@@H](O)[C@H]3O)c2n1 [Ticagrelor] | 0.42
71 | Clc1ccccc1CN1CCc2sccc2C1 [Ticlopidine (hydrochloride)] | 0.06
72 | CCOC(=O)c1c(N)sc2c1CCN(Cc1ccccc1)C2 [Tinoridine hydrochloride] | 0.03
73 | O=C(O)Cc1cc(I)c(Oc2ccc(O)c(I)c2)c(I)c1 [Tiratricol] | 0.43
74 | COc1cc2nccc(Oc3ccc(NC(=O)Nc4cc(C)on4)c(Cl)c3)c2cc1OC [Tivozanib] | 0.19
75 | NC[C@H]1O[C@H](O[C@H]2[C@H](O)[C@@H](O[C@H]3O[C@H](CO)[C@@H](O)[C@H](N)[C@H]3O)[C@H](N)C[C@@H]2N)[C@H](N)C[C@@H]1O [Tobramycin] | 0.04
76 | Cc1[nH]c(/C=C2\C(=O)Nc3ccc(F)cc32)c(C)c1C(=O)NCCN1CCCC1 [Toceranib] | 0.08
77 | CCc1ccc(Cc2ccc3c(c2)[C@]2(OC3)O[C@H](CO)[C@@H](O)[C@H](O)[C@H]2O)cc1 [Tofogliflozin (hydrate)] | 0.08
78 | Cc1ccc(S(=O)(=O)NC(=O)NN2CCCCCC2)cc1 [Tolazamide] | 0.13

Same assay, conditions: complete media vs cholesterol-free media + simvastatin (0.04 μM); >0 enhanced anti-cancer activity, about 0 neutral, <0 antagonist

Row | Compound | Difference
79 | Cc1ccc(C(C)C)c(O)c1 [Thymol] | −0.23
80 | CC1(C)S[C@@H]2[C@H](NC(=O)[C@H](C(=O)[O-])c3ccsc3)C(=O)N2[C@H]1C(=O)[O-].[Na+].[Na+] [Ticarcillin (disodium)] | −0.09
81 | CCS(=O)(=O)CCn1c([N+](=O)[O-])cnc1C [Tinidazole] | −0.18
82 | CCCCS(=O)(=O)N[C@@H](Cc1ccc(OCCCCC2CCNCC2)cc1)C(=O)O [Tirofiban (hydrochloride monohydrate)] | −0.13
83 | Cc1cccc(C)c1NC(=O)C(C)N (centres unmarked) [Tocainide (hydrochloride)] | −0.25
